Key:
Tau, tubulin = experiment: Polymerized vs. soluble tubulin assay; format: cell-based, mouse; details: zinc 400 μM, 4 h, peptide 10^−12M
Experimental: Polymerized vs. soluble tubulin assay—To quantify tubulin polymerization and Tau-MT association, a simple assay was performed as previously described. The cells grown to confluence in six-well plates were washed with MT buffer (80 mM PIPES pH 6.8, 1 mM MgCl^2, 2 mM EGTA, 5% Glycerol) and lysed at room temperature for 5 min through centrifugation (300 g), with 150 μl of MT buffer with 0.5% Triton X-100 to extract soluble (cytosolic) tubulin (S). The pelleted cells were rinsed once again with an equal volume of modified RIPA lysis buffer (50 mM Tris-HCL pH 7.4, 150 mM NaCl, 2 mM EGTA, 1% Triton X-100, 0. 1% SDS, 0.1% sodium Deoxycholate) to collect the polymerized (cytoskeletal) tubulin (P). The cytosolic and cytoskeletal fractions were each mixed with sample buffer and heated at 95° C. for 5 min. An equal volume of each fraction was analyzed by immunoblotting with Tau, tubulin and actin antibodies, and the results following ECL development were quantified by densitometry (GelQuant.NET software provided by biochemlabsolutions(dot)com).
It is known that in the presence of extracellular zinc NAP protects MT against degradation by promoting Tau binding to the MT shaft. Polymerized vs. soluble tubulin assay was effected to compare protective activities of NAP and SKIP against MT degradation and Tau-MT dissociation (FIGS. 11F-G). After treatments with zinc (400 μM, 4 h) with and without NAP or SKIP (10^−12M, 4 h) the cellular-tubulin pool was separated into polymerized and soluble tubulin fractions. The amount of Tau, tubulin, and actin was identified by immunoblotting (FIG. 11F), followed by densitometric quantification (FIG. 11G).

Tyr mice [1] = experiment: Fecal microbiome real-time PCR; format: in vivo, mouse; details: WT mice
Experimental: Microbiome—Fecal samples were collected from 12.2±0.19-week-old mice. Samples were prepared and analyzed as previously described (57). Microbiome data was analyzed after applying the logarithmic transformation.

[2] = tested on: Tau-MT interaction in differentiated N1E-115 cells; experiment: Fluorescence recovery after photobleaching (FRAP) of mCherry-Tau; format: cell-based, mouse; details: for Tau-MT interaction (immobile mCherry-Tau fraction): 4 hrs
Experimental: Cell culture—Mouse neuroblastoma NIE-115 cells were maintained in Dulbecco's modified Eagle's medium, 10% fetal bovine serum, 2 mM glutamine and 100 U ml-1 penicillin, 100 mg ml-1 streptomycin (Biological Industries, Beit Haemek, Israel). The cells were incubated in 9 5% air/5% CO2 in a humidified incubator at 37° C.
Cell differentiation and co-transfection of overexpression plasmids—Cultured NIE-115 cells were plated on 35 mm dishes (81156, 60 p-Dish, Ibidi, Martinsried, Germany) at a concentration of 1.25×10^4 cells per dish and then were differentiated with reduced fetal bovine serum (2%) and DMSO (1.25%) containing medium for 5 days before transfection. 48 hrs before experiments N1E-115 cells were co-transfected with 1 μg EB3-RFP or mCherry-Tau (3R) plasmid with or without 2 μg of plasmids, coding to GFP conjugated to full-length human ADNP, or ADNP carried mutations. 1:3 ratios between total amount of transfected DNA and transfection reagent were used according to manufacture guidance (Lipofectamine2000, Thermo Fisher Scientific, Waltham, MA, USA) in all subsequent experiments.
Fluorescence recovery after photobleaching (FRAP)—Differentiated NIE-115 cells were transfected with mCherry-Tau with or without GFP-conjugated to full-length ADNP or mutated ADNP, and imaged 48 hrs after transfection. An ROI for photobleaching was drowned in the proximal cell branches. mCherry-Tau was bleached with a […], and fluorescence recovery was collected within wavelengths of 610-650 nm. 80 images were taken every 0.74 sec immediately after bleaching. After FRAP imaging all samples were also treated with NAP in final concentrations of 10^−12M, and after 4 hrs time-lapse imaging was done again under the same conditions. FRAP imaging for assessment difference between NAP and SKIP (SEQ ID NO: 21) activity was performed after an hour of ZnCl2 treatment (400 μM final concentration; Sigma, Rehovot, Israel) with or without NAP/SKIP (10^−12M final concentration). Fluorescence signals were quantified with Fiji, obtained data were normalized with easyFRAP [82, 83] and FRAP recovery curves were fitted by a one-phase exponential association function by GraphPad Prism6 (GraphPad Software, Inc., La Jolla, CA, USA) while samples with R^2<0.9 were excluded.
Next, the effect of full-length/truncated ADNP forms with or without NAP treatment on Tau-MT interaction was examined by fluorescence recovery after photobleaching (FRAP) (FIGS. 8A-C). FRAP was performed with mCherry-tagged Tau protein (FIG. 8A). […] Therefore, the immobile mCherry-Tau fraction reflects the rate of Tau association with MTs.

ADNP^+/− MOUSE = tested on: ADNP^+/− MOUSE; design: key: corrections by NAP treatment (+); details: Adnp+/− mouse (second symbol); cited from earlier work
Tyr mice [3] = experiment: RNA seq of mouse spleens; format: in vivo
Experimental: RNA seq—Total RNA was extracted from 14-week-old mouse spleens and sequenced using standard methods on NextSeq500 system (Illumina) as detailed. Data were analyzed as previously described (9).

[4] = tested on: mice with the ASD-linked InsG3680 mutation (SHANK3); experiment: Open field behavior in the SHANK3 mouse model; format: in vivo; details: intranasal NAP once daily, five days a week for a month
Experimental: (§1) To this end, mice with the ASD-linked InsG3680 mutation were used. Two behavioral assessments were performed on make mice: • 1) Open field behavior attesting to anxiety and depression (Open field behavioral assessment technology was previously described, e.g.); and • 2) Social recognition behavior, related to autistic traits (the social recognition test was previously described, e.g..
This surprising finding is of importance as there is a psychiatric illness and regression in individuals with Phelan-McDermid syndrome.

[5] = tested on: mice with the ASD-linked InsG3680 mutation (SHANK3); experiment: Social recognition test in the SHANK3 mouse model; format: in vivo; details: intranasal NAP
Experimental: as §1
In the social recognition test, the results measured both time exploring and frequency exploring the mouse or cup, either directly or in the chamber where the mouse or cup only are present (FIG. 13).

SMILES: CC[C@H](C)[C@H](NC(=O)[C@H](CO)NC(=O)[C@@H](NC(=O)[C@@H]1CCCN1C(=O)[C@H](C)NC(=O)[C@@H](N)CC(N)=O)C(C)C)C(=O)N1CCC[C@H]1C(=O)N[C@@H](CCC(N)=O)C(=O)O [NAP, NAPVSIPQ]
- protection against Tau dissociation from MTs (soluble Tau ratio) (Tau, tubulin): only NAP exhibited protection against Tau dissociation from MTs
- protection of polymerized tubulin against zinc (Tau, tubulin): protected against zinc-induced decay
- bacterial loads (EubV3, BIF, Lacto, Entero) (Tyr mice [1]): no effect on WT mice
- Tau-MT interaction (immobile mCherry-Tau fraction) ([2]; cells expressing ADNP p.Glu830synfs*83, NAP 10^−12M): significantly increased Tau-MT interaction
- Tau-MT interaction (immobile mCherry-Tau fraction) ([2]; cells expressing ADNP p.Ser404*, NAP 10^−12M): significantly increased Tau-MT interaction
- Tau immobile fraction (Tau-MT interaction) in the presence of zinc ([2]; zinc 400 μM, 1 h, peptide 10^−12M): excessive impact of NAP on Tau-MT interaction
- NAP efficacy: visual evoked potential/axonal transport (ADNP^+/− MOUSE): +/+
- spleen gene expression converging on AKT1, nervous and reproductive systems development (Tyr mice [3]): corrected by NAP
- open field: cumulative duration in the center [4]: significantly increased by NAP treatment
- social recognition: mouse vs. cup exploration [5]: normalization of behavior in the NAP-treated SHANK3 mouse model

Source: patent publication US20250032581A1, “COMPOSITIONS AND ARTICLES COMPRISING AN ADNF POLYPEPTIDE” (RAMOT AT TEL-AVIV UNIVERSITY LTD., priority 2021, published 2025)
